{
  "source": "patent US20040096455A1",
  "about": "“Transdermal vaccine delivery device having coated microprotrusions” (priority 2002, published 2004)",
  "key": {"ovalbumin": {"molecular_target": "T1, ovalbumin (Gallus gallus, UniProt P01012)", "T1 sequence (P01012 1-386)": "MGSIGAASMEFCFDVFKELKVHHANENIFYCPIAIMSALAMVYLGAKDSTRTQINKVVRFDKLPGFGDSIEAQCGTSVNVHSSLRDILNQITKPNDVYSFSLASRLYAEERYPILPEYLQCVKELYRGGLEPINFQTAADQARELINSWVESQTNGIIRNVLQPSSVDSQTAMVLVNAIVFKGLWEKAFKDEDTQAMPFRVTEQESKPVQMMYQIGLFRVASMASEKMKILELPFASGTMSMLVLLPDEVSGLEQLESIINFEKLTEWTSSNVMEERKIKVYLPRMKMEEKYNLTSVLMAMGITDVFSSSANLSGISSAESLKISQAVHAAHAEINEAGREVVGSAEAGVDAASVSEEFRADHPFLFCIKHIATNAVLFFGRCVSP", "test": "Solubilization of 0.5 wt % ovalbumin solution by surfactants", "format": "physicochemical", "source_text": "Other surfactants and concentrations were test against a solution 0.5 wt % ovalbumin."}, "[1]": {"system": "monovalent \"split-varion\" influenza vaccine (A/Panama/2007/99, H3N2)", "format": "physicochemical, influenza virus"}, "[2]": {"settings": "0.5 wt % ovalbumin, Surfactant Concentration 0.0085 M"}, "[3]": {"settings": "0.5 wt % ovalbumin, Surfactant Concentration 0.017 M"}, "[4]": {"settings": "0.5 wt % ovalbumin, Surfactant Concentration 0.035 M"}, "[5]": {"settings": "0.5 wt % ovalbumin, Surfactant Concentration 0.052 M"}, "[6]": {"settings": "0.5 wt % ovalbumin, Surfactant Concentration 0.069 M"}},
  "note": "Read-outs that look alike come from different tables or passages of the source.",
  "data": [
    {"smiles": "CCCCCCCCCCCC[N+](C)(C)C.[Br-]", "note": "[Dodecyltrimethylammonium Br]", "values": [
      {"measurement": "complete solubilization of ovalbumin solution", "setting": "ovalbumin; [2]", "result": "−"},
      {"measurement": "complete solubilization of ovalbumin solution", "setting": "ovalbumin; [3]", "result": "−"},
      {"measurement": "complete solubilization of ovalbumin solution", "setting": "ovalbumin; [4]", "result": "−"},
      {"measurement": "complete solubilization of ovalbumin solution", "setting": "ovalbumin; [5]", "result": "−"},
      {"measurement": "complete solubilization of ovalbumin solution", "setting": "ovalbumin; [6]", "result": "−"}
    ]},
    {"smiles": "CCCCCCCCCCCC(=O)[O-].[Na+]", "note": "[Sodium laurate]", "values": [
      {"measurement": "complete solubilization of ovalbumin solution", "setting": "ovalbumin; [2]", "result": "−"},
      {"measurement": "complete solubilization of ovalbumin solution", "setting": "ovalbumin; [3]", "result": "−"},
      {"measurement": "complete solubilization of ovalbumin solution", "setting": "ovalbumin; [4]", "result": "+"},
      {"measurement": "complete solubilization of ovalbumin solution", "setting": "ovalbumin; [5]", "result": "+"},
      {"measurement": "complete solubilization of ovalbumin solution", "setting": "ovalbumin; [6]", "result": "+"}
    ]},
    {"smiles": "CCCCCCCCCCCCCCCCCCOS(=O)(=O)[O-].[Na+]", "note": "[Sodium octadecylsulfate]", "values": [
      {"measurement": "complete solubilization of ovalbumin solution", "setting": "ovalbumin", "result": "−"}
    ]},
    {"smiles": "CCCCCCCCOS(=O)(=O)[O-].[Na+]", "note": "[Sodium octylsulfate]", "values": [
      {"measurement": "complete solubilization of ovalbumin solution", "setting": "ovalbumin", "result": "−"}
    ]},
    {"smiles": "CCCCCCCCCCCCCCOS(=O)(=O)[O-].[Na+]", "note": "[Sodium tetradecylsulfate]", "values": [
      {"measurement": "complete solubilization of ovalbumin solution", "setting": "ovalbumin", "result": "−"}
    ]},
    {"smiles": "CCCCCCCCCC[N+](C)(C)CCCS(=O)(=O)[O-]", "note": "[Zwittergent 3-10]", "values": [
      {"measurement": "Turbidity @ 340 nanometers (200 μg/ml)", "setting": "[1]", "result": 0.120}
    ]},
    {"smiles": "CCCCCCCCCCCC[N+](C)(C)CCCS(=O)(=O)[O-]", "note": "[Zwittergent 3-12]", "values": [
      {"measurement": "Turbidity @ 340 nanometers (200 μg/ml)", "setting": "[1]", "result": 0.087}
    ]},
    {"smiles": "CCCCCCCCCCCCCC[N+](C)(C)CCCS(=O)(=O)[O-]", "note": "[Zwittergent 3-14]", "values": [
      {"measurement": "Turbidity @ 340 nanometers (200 μg/ml)", "setting": "[1]", "result": 0.070}
    ]}
  ]
}
